Measurements as given in patent US20240277583A1, “Micellar Mouthwash Composition” (Colgate-Palmolive Company, priority 2022, published 2024).

Columns and labels:
[1] = Colloid particle (micelle) size by dynamic light scattering; format: physicochemical; settings: colloid particle diameter
Description: Next, the colloid particle (micelle) size in Formulations A and B as well as Elmex mouthwash is examined.
In contrast, the micelle size of Formulation B is around 14.1 nm, close to that of PEG-40 hydrogenated castor oil (16.0 nm). Although the inflection point of the surface tension curve is not obvious in the Elmex mouthwash, dynamic light scattering detects colloid particles with 12.2 nm diameter, which are likely solubilized oil droplets in the mouthwash product. With the smallest particle size (amine fluoride/coco glucoside<amine fluoride<amine fluoride/PEG-40 hydrogenated castor oil), amine fluoride/cocoyl glucoside complex is most mobile and can likely reach smaller spaces that others cannot reach. This feature would likely enhance the delivery of active encapsulated in the micelle core, and also enhance availability of amine fluoride, therefore improving its antibacterial efficacy.

[2] = Diffusion rate D determined by NMR; format: physicochemical

Micelle size (nm) mean [1]: 6.6 nm
D in individual solution ([2]; ingredient alone in solution): 4.84 × 10^−6 cm^2/s
D in Formulation A ([2]; ingredient within Formulation A (Olaflur + coco glucoside)): 2.27 × 10^−6 cm^2/s
D in Formulation B ([2]; ingredient within Formulation B (Olaflur + PEG-40 hydrogenated castor oil)): 4.33 × 10^−6 cm^2/s
SMILES: CCCCCCCCCCCCCCCCCCN(CCO)CCCN(CCO)CCO.F.F [Olaflur, N′-octadecyltrimethylenediamine-N,N,N′-tris(2-ethanol)-dihydrofluoride]
